Measured values: ChEMBL document CHEMBL1201862, “PubChem BioAssay data set” (2004)
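96-well plates; 48 h exposure; 5 concentrations. Endpoints by linear interpolation between flanking doses. Not reached: highest tested concentration assigned. GI50 marks 50% less growth.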 Activity calls are given as the source filed them. Cut-off read from the data, not from the text of the source: active = GI50 up to about 1.1 µM and inactive = higher.

Assays:
Test in all cases: DTP human tumour cell line panel, 48 h
[1] = tested on: HCC 2998
[2] = tested on: HCT-116
[3] = tested on: HCT-15
[4] = tested on: HL-60
[5] = tested on: HOP-62
[6] = tested on: MOLT-4
[7] = tested on: NCI-H226
[8] = tested on: NCI/ADR-RES
[9] = tested on: OVCAR-3
[10] = tested on: OVCAR-4
[11] = tested on: OVCAR-5
[12] = tested on: OVCAR-8
[13] = tested on: PC-3
[14] = tested on: RXF 393
[15] = tested on: SK-MEL-28
[16] = tested on: SNB-19
[17] = tested on: SNB-75
[18] = tested on: UACC-257
[19] = tested on: KM12
[20] = tested on: RPMI-8226

Measured: GI50

ClCCCC1COc2ccccc2O1 (stereo unspecified)
inactive: [1] > 100 µM | [2] 45.7 µM | [4] > 100 µM | [5] > 100 µM | [6] > 100 µM | [7] > 100 µM | [8] > 100 µM | [9] > 100 µM | [10] > 100 µM | [11] 55.8 µM | [12] > 100 µM | [13] > 100 µM | [14] > 100 µM | [15] > 100 µM | [16] > 100 µM | [17] > 100 µM | [18] > 100 µM
> 100 µM: [3]

CNC(=O)OCCN1c2ccccc2Sc2ccccc21
inactive: [1] > 100 µM | [2] 74 µM | [4] > 100 µM | [5] 14.1 µM | [19] > 100 µM | [6] > 100 µM | [7] 47.9 µM | [8] > 100 µM | [9] 63.2 µM | [10] > 100 µM | [11] > 100 µM | [12] > 100 µM | [13] 46.6 µM | [14] 19.2 µM | [15] > 100 µM | [16] > 100 µM | [18] > 100 µM
> 100 µM: [3]

O=P1(O)c2ccccc2CSCc2ccccc21
inactive: [1] > 100 µM | [2] > 100 µM | [4] > 100 µM | [5] > 100 µM | [19] > 100 µM | [6] > 100 µM | [7] > 100 µM | [8] > 100 µM | [9] > 100 µM | [10] > 100 µM | [11] > 100 µM | [12] > 100 µM | [13] > 100 µM | [14] > 100 µM | [15] > 100 µM | [16] > 100 µM | [18] > 100 µM
> 100 µM: [3]

O=C(OCC(Cl)(Cl)Cl)N1CC[C@H](C2CCCCC2)C1
inactive: [1] 18.5 µM | [2] 14.6 µM | [5] 18.3 µM | [19] 17.3 µM | [6] 28.1 µM | [8] 15 µM | [9] 16.6 µM | [10] 16.6 µM | [11] 18.9 µM | [13] 21.6 µM | [14] 19.5 µM | [16] 16.5 µM | [17] 20.8 µM | [18] 19.1 µM
18.2 µM: [3]

Cn1c2ccccc2c2nc3ccccc3c(Cl)c21
> 100 µM: [3]
inactive: [2] > 100 µM | [4] > 100 µM | [5] > 100 µM | [19] > 100 µM | [6] > 100 µM | [7] > 100 µM | [8] > 100 µM | [9] > 100 µM | [10] > 100 µM | [11] 49 µM | [12] > 100 µM | [13] > 100 µM | [20] > 100 µM | [14] 37.9 µM | [15] > 100 µM | [16] > 100 µM | [17] 23.4 µM | [18] > 100 µM

O=C1CC(NC(=O)C(F)(F)F)c2c(Br)sc(N3CCNCC3)c21 (stereo unspecified)
> 100 µM: [3]
inactive: [1] > 100 µM | [2] > 100 µM | [4] > 100 µM | [19] > 100 µM | [6] > 100 µM | [7] > 100 µM | [8] > 100 µM | [9] > 100 µM | [10] > 100 µM | [11] > 100 µM | [12] > 100 µM | [13] > 100 µM | [14] > 100 µM | [15] > 100 µM | [16] > 100 µM | [17] > 100 µM | [18] > 100 µM
